One test concerns carrageenin edema. Put plainly: Inhibitory activity on carrageenin edema. In kind it is in vivo, Wistar male rats. As to conditions: rat, paw swelling volume three hours after carrageenin; for Inhibition rate (%): dose 50 mg/kg orally. The method, then:
Using Wistar male rats (body weight: about 100 g), each test group consisted of 5 rats. A test compound was mixed with Tween 80 [polyoxyethylenesorbitan monooleate (manufactured by Nacalai Tesque K.K.)], and distilled water was added thereto to obtain a 2% Tween 80 suspension, or it was dissolved in the form of a salt in water to obtain an aqueous solution. Either the suspension or the aqueous solution was orally administered in an amount of 200 mg/kg, 100 mg/kg, 50 mg/kg or 25 mg/kg. One hour later, 0.1 ml of a 1% λ-carrageenin solution dissolved in a physiological saline was injected subcutaneously to the right hind paw of each rat to cause inflamation. Three hours later, the paw volume was measured by a paw volume measuring device (manufactured by Ugobasiee K.K.). A swelling volume was obtained from the difference from the value before the inflammation. Inhibition rate (%) = (l -(F)/(E)) x 100 [formula] • F: Average swelling volume in the group to which a test compound was administered. • E: Average swelling volume in the control group.

Test [1] deals with T1, Porcine pancreatic phospholipase A2 (Sus scrofa, UniProt P00592).
T1 construct: purchased Boehringer Mannheim·Yamanouchi K.K. 161454·122416
T1 sequence (P00592 23-146): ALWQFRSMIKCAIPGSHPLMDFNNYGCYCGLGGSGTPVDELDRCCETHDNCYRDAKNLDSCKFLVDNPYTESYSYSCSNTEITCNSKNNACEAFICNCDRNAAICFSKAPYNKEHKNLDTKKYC
Put plainly: Phospholipase A2 inhibitory activity, method B (L-α-dipalmitoylphosphatidylcholine substrate). The class given is biochemical. The settings on record: 37°C for 30 minutes; for inhibition at 1000 ppm: 1,000 ppm, read-out: % inhibition of PLA2 (1,000 ppm). The protocol:
To a solution prepared by dissolving 9.2 mg of L-α-dipalmitoylphosphatidylcholine (manufactured by Nichiyu Liposome K.K.) in 0.5 ml of chloroform, a solution prepared by dissolving 32 mg of sodium cholate (manufactured by Wako Pure Chemical Industries, Ltd.) in 0.5 ml of methanol, was added, followed by mixing. The solvent of the mixture was removed under a nitrogen stream, and then 2.5 ml of a 250 mM sodium chloride solution [prepared by dissolving sodium chloride in a 100 mM Tris-HCl buffer solution {tris(hydroxymethyl)aminomethane (manufactured by Nacalai Tesque K.K.) was adjusted to pH8.0 with hydrochloric acid}] was added thereto, and the mixture was dissolved under stirring to obtain a substrate.
Porcine pancreatic phospholipase A2 [(161454·122416) manufactured by Boehringer Mannheim·Yamanouchi K.K.] was used.
To a 96 well microtitration plate, 20 µl of a solution containing calcium chloride, bovine serum alubmin (manufactured by Sigma Chemical, Co.) and a Tris-HCl buffer solution (pH8.0) at concentrations of 25 mM, 4.5 mg/ml and 100 mM, respectively, 5 µl of a solution prepared by dissolving 10 mg of a test compound in 500 µl of diemthylsulfoxide, followed by an addition of 500 µl of a 200 mM Tris-HCl buffer solution, 5 µl of an enzyme solution (10 µg/ml) [prepared by dissolving the enzyme in a bovine serum alubmin solution (prepared by dissolving bovine serum alubmin in a 100 mM Tris-HCl buffer solution at a concentration of 1 mg/ml)] and 20 µl of the substrate, were added and reacted at 37°C for 30 minutes. After termination of the reaction, the released free fatty acid was quantitatively analyzed in accordance with the ACS-ACOD (acyl CoA synthetase-acyl CoA oxidase) method [a kit of NEFA C test wako (manufactured by Wako Pure Chemical Industries, Ltd.) was used]. The quantitative analysis was made by means of Microplate ELISA Reader (Model 2550EIA Reader, manufactured by Bio-Rad Laboratories) at a wavelength of 540 nm. Separately, such experiments as mentioned above, were carried out at various concentrations (1 µg/ml, 0.75 µg/ml, 0.5 µg/ml and 0.25 µg/ml) of phospholipase A2 without a test compound. Then, the concentration of the free fatty acid versus the concentration of phospholipase A2 was plotted.
From this standard curve, the apparent concentration of phospholipase A2 in the case with a test compound, was read. Then, the percent inhibition of the enzyme was calculated by the following formula. Percent inhibition (%) = (l -(A)/(B)) x 100 [formula] • A: Apparent enzyme concentration when a test compound is added. • B: True enzyme concentration when a test compound is added.

Test [2] has as its system experimental acute pancreatitis model. The experiment in a line: Effects against acute pancreatitis (Test Example 8, closed duodenal loop method, lesion scores). In kind it is in vivo, Crj-CD male rats. As to conditions: Rattus norvegicus, 10 mg/kg single intravenous injection, sodium salt, 6 hours after ventrotomy. The method, then: Using Crj-CD male rats, each test group consisted of 3 rats. An experimental acute pancreatitis model was prepared by a closed duodenal loop method under anethesia with halothane (manufactured by Hoechst Japan) and nitrous oxide (manufactured by Sumitomo Seika K.K.) applied by a general inhalation anesthesia machine (Model EM2 and halothane evaporator F-Model). Each compound (subjected to the test in the form of a sodium salt) was continuously intravenously injected into the tail vein in an amount of 0.4 ml/100 g to 0.6 ml/100 g at a rate of 0.05 ml per minute by a pump (Technicon AA II Proportioning Pump III, manufactured by Technicon Instruments Corporation) or rapidly intravenously injected. No injection was made to a control group. Gross pathological examination was conducted upon expiration of 6 hours after the ventrotomy in the case of the group to which the compound was administered. With respect to each of four lesions among pancreatic lesions i.e. petechia, ecchymosis, pancreatic necrosis and abdominal fatty necrosis, the grade and the distribution of lesions were scored with five grades of 0, 0.5, 1, 2 and 3 (severe lesions are 3). The sum of all lesions was designated as scores of pancreatitis lesions, and the sum of the score of petechia and the score of ecchymosis only was designated as scores of hemorrhagic lesions. The pancreatitis inhibition rate (%) and the hemorrhage inhibition rate (%) were obtained by the following formulas, and the results are shown in Table 13. Pancreatitis inhibition rate (%) = (l -(H)/(G)) x 100 [formula] • H: Scores of pancreatitis lesions of the group to which a test compound was administered. • G: Scores of pancreatitis lesions of the control group. Hemorrhage inhibition rate (%) = (l -(J)/(I)) x 100 [formula] • J: Scores of hemorrhagic lesions of the group to which a test compound was administered. • I: Scores of hemorrhagic lesions of the control group.

Where [3] appears, read: read-out: Inhibition rate of hemorrhagic lesions (%).
The mark [4] stands for this setting: read-out: Inhibition rate of pancreatitis lesions (%).

Where two headings read alike, the source gives them in different places.

On to `CCOC(=O)NC(=S)Nc1cc(C(F)(F)F)cnc1NS(=O)(=O)c1ccc(C)cc1` [Compound No. 25], for which the inhibition in vivo at 200 mg/kg in the test with carrageenin edema (po, 3 h, dose 200 mg/kg orally, read-out: Inhibition rate (%)) was found to be 27%.

By inhibition is commonly meant the drop in the measured response relative to a control, in per cent. `CS(=O)(=O)Nc1ncc(C(F)(F)F)cc1NC(=O)CCc1ccccc1` [compound 64]: in test [1], the inhibition at 1000 ppm was 61%. Further, the inhibition in vivo at 10 mg/kg in test [2] (setting [3]) worked out at 60%; in test [2] (setting [4]) it was 68%.

Take `CCCCC(CC)C(=O)Nc1cc(C(F)(F)F)cnc1NS(C)(=O)=O` (stereo not drawn) [compound 65]: the inhibition at 1000 ppm in test [1] worked out at 71%. The “Inhibition rate (%)” value in the test on carrageenin edema is given as 37%. Further, the results for the inhibition in vivo at 10 mg/kg in test [2] (setting [3]) and in test [2] (setting [4]) were 67% and 74%, respectively.

In the case of `CCC(C(=O)Nc1cc(C(F)(F)F)cnc1NS(C)(=O)=O)c1ccccc1` (stereo not drawn) [compound 66], the inhibition at 1000 ppm in test [1] came to 52%. Besides, in the test on carrageenin edema, the “Inhibition rate (%)” value was determined as 31%. In addition, the inhibition in vivo at 10 mg/kg in test [2] (setting [3]) stood at 53%; in test [2] (setting [4]), 63%.

As for `CS(=O)(=O)Nc1ncc(C(F)(F)F)cc1NC(=O)C1CCCCCC1` [compound 67], the inhibition at 1000 ppm in test [1] came to 82%. Moreover, the inhibition in vivo at 25 mg/kg in the test with carrageenin edema (po, 3 h, dose 25 mg/kg orally, read-out: Inhibition rate (%)) is 19%.

For the compound `CS(=O)(=O)Nc1ncc(C(F)(F)F)cc1NC(=O)C1=CCCCC1` [compound 69], in test [1], the inhibition at 1000 ppm came out at 63%. For the same compound, in the test on carrageenin edema, the “Inhibition rate (%)” value came to 25%.

`C=CCCC(=O)Nc1cc(C(F)(F)F)cnc1NS(C)(=O)=O` [compound 74]: in test [1], the inhibition at 1000 ppm turned out to be 33%. The inhibition in vivo at 10 mg/kg in test [2] (setting [3]) was found to be 66%; in test [2] (setting [4]) it was 67%.

Turning to `CCc1ccc(C(=O)Nc2cc(C(F)(F)F)cnc2NS(C)(=O)=O)cc1` [compound 81], the inhibition at 1000 ppm in test [1] was determined as 94%. For the same compound, the figures for the inhibition in vivo at 10 mg/kg in test [2] (setting [3]) and in test [2] (setting [4]) were 49% and 58%, respectively.

On to `Cc1ccc(C(=O)Nc2cc(C(F)(F)F)cnc2NS(C)(=O)=O)s1` [compound 83], for which the inhibition at 1000 ppm in test [1] worked out at 64%. Moreover, the inhibition in vivo at 10 mg/kg amounted to 53% in test [2] (setting [3]) and 51% in test [2] (setting [4]).

Regarding `CS(=O)(=O)Nc1ncc(C(F)(F)F)cc1NC(=O)c1ccco1` [compound 85], the inhibition at 1000 ppm in test [1] stood at 33%. For the same compound, the inhibition in vivo at 10 mg/kg is 57% in test [2] (setting [3]) and 67% in test [2] (setting [4]).

On to `CCS(=O)(=O)Nc1ncc(C(F)(F)F)cc1NC(=O)C1CCCCCC1` [compound 97], for which the inhibition at 1000 ppm in test [1] was 88%. The inhibition in vivo at 10 mg/kg in test [2] (setting [3]) and in test [2] (setting [4]) was 35% each time.

Take `CC(C)S(=O)(=O)Nc1ncc(C(F)(F)F)cc1NC(=O)c1cccc(F)c1` [compound 104]: the inhibition at 1000 ppm in test [1] was 61%. Moreover, the “Inhibition rate (%)” value with carrageenin edema turned out to be 48%.

Consider `CCCCCC(=O)Nc1cc(C(F)(F)F)cnc1NS(=O)(=O)N(C)C` [compound 110], for which the inhibition at 1000 ppm in test [1] was 58%. Besides, the “Inhibition rate (%)” value in the test on carrageenin edema is listed as 25%.

Regarding `CCCOC(=O)Nc1cc(C(F)(F)F)cnc1NS(=O)(=O)N(C)C` [compound 114], the inhibition at 1000 ppm in test [1] amounted to 53%. Also, the “Inhibition rate (%)” value in the test with carrageenin edema came to 28%. In addition, the inhibition in vivo at 10 mg/kg in test [2] (setting [3]) is 32%; in test [2] (setting [4]) it was 27%.

Regarding `CCOS(=O)(=O)Nc1ncc(C(F)(F)F)cc1NC(=O)C1CCCCC1` [compound 117], the inhibition at 1000 ppm in test [1] came out at 65%. Besides, the inhibition in vivo at 10 mg/kg in test [2] (setting [3]) and in test [2] (setting [4]) was 30% in each case.

As for `Cc1cc(C)cc(C(=O)Nc2cc(C(F)(F)F)cnc2NS(C)(=O)=O)c1` [compound 122], in test [1], the inhibition at 1000 ppm was found to be 56%. Besides, the inhibition in vivo at 10 mg/kg in test [2] (setting [3]) and in test [2] (setting [4]) was 51% in each case.

On to `CS(=O)(=O)Nc1ncc(C(F)(F)F)cc1NC(=O)c1ccc2c(c1)CCCC2` [compound 123], for which the inhibition at 1000 ppm in test [1] turned out to be 86%. In addition, the “Inhibition rate (%)” value in the test on carrageenin edema was determined as 42%. In addition, the inhibition in vivo at 10 mg/kg in test [2] (setting [3]) and in test [2] (setting [4]) was 56% each time.

Regarding `CCCCCCC(=O)Nc1cc(C(F)(F)F)cnc1NS(C)(=O)=O` [compound 124], the inhibition at 1000 ppm in test [1] amounted to 78%. Besides, the inhibition in vivo at 10 mg/kg in test [2] (setting [3]) and in test [2] (setting [4]) was 51% throughout.

With `CCCCCCCC(=O)Nc1cc(C(F)(F)F)cnc1NS(C)(=O)=O` [compound 125], in test [1], the inhibition at 1000 ppm was determined as 86%. Moreover, in the test on carrageenin edema, the “Inhibition rate (%)” value is 22%.

As for `O=C(Nc1ncc(C(F)(F)F)cc1NC(=O)C1CCCCC1)c1ccccc1` [compound 150], the “Inhibition rate (%)” value in the test on carrageenin edema is 23%.

Turning to `CS(=O)(=O)Nc1ncc(C(F)(F)F)cc1NC(=O)c1ccc(F)cc1` [compound 259], the “% inhibition of PLA2 (1,000 ppm)” value in test [1] is given as 61%. The “Inhibition rate (%)” value with carrageenin edema amounted to 17%.

For the origin of these results see patent EP0465913B1, “Diaminotrifluoromethylpyrimidine derivatives, process for their production and phospholipase A2 inhibitor containing them” (ISHIHARA SANGYO KAISHA, LTD., priority 1990, dated 1992).
